{"source": "paper PMC8650577", "key": {"[1]": {"experiment": "Two-component bis-thiol stapling with 2,3-dibromomaleimide (200 uM), TCEP (100 uM); thioether formation followed at 395 nm", "conditions": "the molecule shown is the open-chain precursor, 50 mM aq. phosphate buffer pH 6.0, 0.1 mM, 20.0 °C, 1.0 h"}, "[2]": {"experiment": "Two-component i,i+4 bis-thiol stapling: TCEP (1.1 eq) reduction for 1 h, then 2,3-dibromomaleimide (1.1 eq) for 1 h; two S-C(maleimide) thioether bonds formed", "conditions": "the molecule shown is the open-chain precursor, MeCN/50 mM aq. ammonium acetate pH 7.4 (1:1), 3.3 mM, 14 steps"}, "[3]": {"experiment": "circular dichroism", "conditions": "10 mM sodium phosphate; pH 7.2; 25 °C; 250 uM"}}, "note": "*1 amine or outer side, *2 acyl side, *3 side chain or, on linkers, in order; H or OH if unused. Where a SMILES comes first, the peptide text is derived from it. Bridges are numbered along the chain shown (N, C = ends). [ ]: non-standard residue; d: D form. Maleimide(3,4-diyl) = O=C1NC(=O)C([*:2])=C1[*:1]; hCys = N[C@@H](CCS)C(=O)O", "data": [{"smiles": "CC(=O)N[C@H](CSC1=C(Br)C(=O)NC1=O)C(=O)N[C@@H](C)C(=O)N[C@@H](C)C(=O)N[C@@H](C)C(=O)N[C@H](CS)C(N)=O", "note": "[Ac-D-Cys-Ala-Ala-Ala-D-Cys-NH2]", "values": [{"measurement": "ring closure, halflife", "setting": "[1]; 19-membered ring", "result": 10, "unit": "min"}, {"measurement": "ring closure, overall yield", "setting": "[2]; 19-membered ring", "result": 11, "unit": "%"}]}, {"smiles": "CC(=O)N[C@@H](CSC1=C(Br)C(=O)NC1=O)C(=O)N[C@@H](C)C(=O)N[C@@H](C)C(=O)N[C@@H](C)C(=O)N[C@@H](CCS)C(N)=O", "note": "[Ac-Cys-Ala-Ala-Ala-hCys-NH2]", "values": [{"measurement": "ring closure, halflife", "setting": "[1]; 20-membered ring", "result": 13, "unit": "min"}, {"measurement": "ring closure, overall yield", "setting": "[2]; 20-membered ring", "result": 4, "unit": "%"}]}, {"smiles": "CC(=O)N[C@@H](CCSC1=C(Br)C(=O)NC1=O)C(=O)N[C@@H](C)C(=O)N[C@@H](C)C(=O)N[C@@H](C)C(=O)N[C@@H](CCS)C(N)=O", "note": "[Ac-hCys-Ala-Ala-Ala-hCys-NH2]", "values": [{"measurement": "ring closure, halflife", "setting": "[1]; 21-membered ring", "result": 9, "unit": "min"}, {"measurement": "ring closure, overall yield", "setting": "[2]; 21-membered ring", "result": 17, "unit": "%"}]}, {"smiles": "CC(=O)N[C@H]1CSC2=C(SC[C@H](C(N)=O)NC(=O)[C@H](C)NC(=O)[C@H](C)NC(=O)[C@H](C)NC1=O)C(=O)NC2=O", "values": [{"measurement": "helicity", "setting": "[3]", "result": 17, "unit": "rel %"}]}, {"smiles": "CC(=O)N[C@H]1CCSC2=C(SCC[C@@H](C(N)=O)NC(=O)[C@H](C)NC(=O)[C@H](C)NC(=O)[C@H](C)NC1=O)C(=O)NC2=O", "note": "(Ac-[hCys]AAA[hCys]-NH2; linker 1-5 via Maleimide(3,4-diyl))", "values": [{"measurement": "helicity", "setting": "[3]", "result": 13, "unit": "rel %"}]}, {"smiles": "CC(=O)N[C@@H]1CSC2=C(SC[C@@H](C(N)=O)NC(=O)[C@H](C)NC(=O)[C@H](C)NC(=O)[C@H](C)NC1=O)C(=O)NC2=O", "values": [{"measurement": "helicity", "setting": "[3]", "result": 28, "unit": "rel %"}]}, {"smiles": "CC(=O)N[C@H]1CSC2=C(SCC[C@@H](C(N)=O)NC(=O)[C@H](C)NC(=O)[C@H](C)NC(=O)[C@H](C)NC1=O)C(=O)NC2=O", "note": "(Ac-CAAA[hCys]-NH2; linker 1-5 via Maleimide(3,4-diyl))", "values": [{"measurement": "helicity", "setting": "[3]", "result": 48, "unit": "rel %"}]}, {"smiles": "CC(=O)N[C@H]1CSC2=C(SC[C@@H](C(N)=O)NC(=O)[C@H](C)NC(=O)[C@H](C)NC(=O)[C@H](C)NC1=O)C(=O)NC2=O", "values": [{"measurement": "helicity", "setting": "[3]", "result": 25, "unit": "rel %"}]}, {"smiles": "CC(=O)N[C@@H](CSC1=C(Br)C(=O)NC1=O)C(=O)N[C@@H](C)C(=O)N[C@@H](C)C(=O)N[C@@H](C)C(=O)N[C@H](CS)C(N)=O", "note": "[Ac-Cys-Ala-Ala-Ala-D-Cys-NH2]", "values": [{"measurement": "ring closure, halflife", "setting": "[1]; 19-membered ring", "result": 8, "unit": "min"}, {"measurement": "ring closure, overall yield", "setting": "[2]; 19-membered ring", "result": 21, "unit": "%"}]}, {"smiles": "CC(=O)N[C@@H]1CSC2=C(SC[C@H](C(N)=O)NC(=O)[C@H](C)NC(=O)[C@H](C)NC(=O)[C@H](C)NC1=O)C(=O)NC2=O", "values": [{"measurement": "helicity", "setting": "[3]", "result": 13, "unit": "rel %"}]}, {"smiles": "CC(=O)N[C@@H](CCSC1=C(Br)C(=O)NC1=O)C(=O)N[C@@H](C)C(=O)N[C@@H](C)C(=O)N[C@@H](C)C(=O)N[C@@H](CS)C(N)=O", "note": "[Ac-hCys-Ala-Ala-Ala-Cys-NH2]", "values": [{"measurement": "ring closure, halflife", "setting": "[1]; 20-membered ring", "result": 11, "unit": "min"}, {"measurement": "ring closure, overall yield", "setting": "[2]; 20-membered ring", "result": 18, "unit": "%"}]}, {"smiles": "CC(=O)N[C@@H](CSC1=C(Br)C(=O)NC1=O)C(=O)N[C@@H](C)C(=O)N[C@@H](C)C(=O)N[C@@H](C)C(=O)N[C@@H](CS)C(N)=O", "note": "[Ac-Cys-Ala-Ala-Ala-Cys-NH2]", "values": [{"measurement": "ring closure, halflife", "setting": "[1]; 19-membered ring", "result": 8, "unit": "min"}, {"measurement": "ring closure, overall yield", "setting": "[2]; 19-membered ring", "result": 21, "unit": "%"}]}, {"smiles": "CC(=O)N[C@H](CSC1=C(Br)C(=O)NC1=O)C(=O)N[C@@H](C)C(=O)N[C@@H](C)C(=O)N[C@@H](C)C(=O)N[C@@H](CS)C(N)=O", "note": "[Ac-D-Cys-Ala-Ala-Ala-Cys-NH2]", "values": [{"measurement": "ring closure, halflife", "setting": "[1]; 19-membered ring", "result": 8, "unit": "min"}, {"measurement": "ring closure, overall yield", "setting": "[2]; 19-membered ring", "result": 7, "unit": "%"}]}, {"smiles": "CC(=O)N[C@H]1CCSC2=C(SC[C@@H](C(N)=O)NC(=O)[C@H](C)NC(=O)[C@H](C)NC(=O)[C@H](C)NC1=O)C(=O)NC2=O", "note": "(Ac-[hCys]AAAC-NH2; linker 1-5 via Maleimide(3,4-diyl))", "values": [{"measurement": "helicity", "setting": "[3]", "result": 11, "unit": "rel %"}]}]}
